The target in data set [1] is T1, trypsin (Bos taurus, UniProt P00760).
T1 sequence (P00760 24-246): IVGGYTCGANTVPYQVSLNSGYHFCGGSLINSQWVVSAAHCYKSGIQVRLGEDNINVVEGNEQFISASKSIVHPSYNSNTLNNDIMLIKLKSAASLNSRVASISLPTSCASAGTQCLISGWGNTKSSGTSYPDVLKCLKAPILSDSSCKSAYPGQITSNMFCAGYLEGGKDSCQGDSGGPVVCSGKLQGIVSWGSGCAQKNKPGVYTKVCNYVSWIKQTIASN
As to the kind of experiment: Enzyme inhibition, TAME hydrolysis, trypsin (method of Muramatsu et al.). The data set is classed as biochemical. The settings on record: hydrolysis of TAME; read-out: ID50, trypsin. As for the experimental part: (§1) The enzyme inhibitory activity was determined according to the method of Muramatsu et al. [M. Muramatsu, T. Onishi, S. Makino, Y. Hayashi and S. Fujii, J. Biochem., 58, 214 (1965)]. The data summarized in Table 1 are expressed in terms of molar concentration (ID50) of the test compound which inhibits 50% of the activity of each enzyme to hydrolyze TAME (tosylarginine methyl ester).

In data set [2] the target is plasmin (Homo sapiens, UniProt P00747). Description: Enzyme inhibition, TAME hydrolysis, plasmin (method of Muramatsu et al.). The data set is classed as biochemical. The settings on record: read-out: ID50, plasmin. As for the experimental part:
as §1

The target in data set [3] is kallikrein. Description: Enzyme inhibition, TAME hydrolysis, kallikrein (method of Muramatsu et al.). The settings on record: read-out: ID50, kallikrein. The data set is classed as biochemical. The method, then: as §1
Data set [4] concerns the target thrombin (Bos taurus, UniProt P00735). As to the kind of experiment: Enzyme inhibition, TAME hydrolysis, thrombin (method of Muramatsu et al.). The data set is classed as biochemical. The method, then:
as §1

The target in data set [5] is T2, Clr (Homo sapiens, UniProt P00736).
T2 sequence (P00736 464-705 limits assumed): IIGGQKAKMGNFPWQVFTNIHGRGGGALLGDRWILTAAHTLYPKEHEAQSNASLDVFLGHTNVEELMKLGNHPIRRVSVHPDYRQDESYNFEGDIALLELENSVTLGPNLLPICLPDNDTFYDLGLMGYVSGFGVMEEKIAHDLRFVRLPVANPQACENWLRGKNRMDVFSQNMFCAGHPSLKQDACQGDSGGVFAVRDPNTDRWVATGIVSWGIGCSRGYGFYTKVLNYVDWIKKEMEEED
T2 sequence (P00736 18-463 partner limits assumed): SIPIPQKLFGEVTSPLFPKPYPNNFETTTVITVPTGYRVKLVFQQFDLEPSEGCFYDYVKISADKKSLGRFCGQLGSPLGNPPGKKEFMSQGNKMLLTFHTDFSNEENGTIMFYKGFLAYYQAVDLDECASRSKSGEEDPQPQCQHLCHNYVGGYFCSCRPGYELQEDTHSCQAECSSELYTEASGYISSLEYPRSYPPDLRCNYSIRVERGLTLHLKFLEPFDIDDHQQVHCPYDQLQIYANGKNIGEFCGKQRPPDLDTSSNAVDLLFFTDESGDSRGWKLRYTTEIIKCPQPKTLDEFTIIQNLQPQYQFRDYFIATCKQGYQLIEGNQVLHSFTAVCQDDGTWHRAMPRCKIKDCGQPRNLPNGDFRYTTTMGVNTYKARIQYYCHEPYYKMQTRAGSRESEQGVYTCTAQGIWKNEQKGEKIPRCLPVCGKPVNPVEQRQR
Description: Anti-Cl esterase activity, Clr (AAME hydrolysis, method of Okamura et al.). The data set is classed as biochemical. The settings on record: read-out: Anti-C1 activity, Clr (ID50). The method, then:
(§2) The anti-Cl esterase (Clr, Cls) activity was determined according to the method of Okamura et al. [K. Okamura, M. Muramatsu and S. Fujii, Biochem. Biophys. Acta, 295, 252-257 (1973)]. The inhibition of complement mediated hemolysis (percent) was determined according to the method of Baker et al. [B. R. Baker and E. H. Erickson, J. Med. Chem., 12, 408-414 (1969)]. The figures in Table 2 have the following meanings:
Clr: Molar concentration of the test compound which inhibits 50% of the ability of Clr to hydrolyse AAME (acetylarginin methyl ester) (ID50).

The target in data set [6] is T3, Cls (Homo sapiens, UniProt P09871).
T3 sequence (P09871 438-688 limits assumed): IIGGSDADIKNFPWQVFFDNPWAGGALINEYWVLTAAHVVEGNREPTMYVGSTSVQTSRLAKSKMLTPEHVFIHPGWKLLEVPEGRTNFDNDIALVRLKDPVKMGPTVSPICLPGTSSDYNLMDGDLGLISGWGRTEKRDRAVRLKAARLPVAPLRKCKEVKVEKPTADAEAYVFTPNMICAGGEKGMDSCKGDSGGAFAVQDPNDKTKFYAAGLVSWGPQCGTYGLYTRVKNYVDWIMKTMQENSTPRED
T3 sequence (P09871 16-437 partner limits assumed): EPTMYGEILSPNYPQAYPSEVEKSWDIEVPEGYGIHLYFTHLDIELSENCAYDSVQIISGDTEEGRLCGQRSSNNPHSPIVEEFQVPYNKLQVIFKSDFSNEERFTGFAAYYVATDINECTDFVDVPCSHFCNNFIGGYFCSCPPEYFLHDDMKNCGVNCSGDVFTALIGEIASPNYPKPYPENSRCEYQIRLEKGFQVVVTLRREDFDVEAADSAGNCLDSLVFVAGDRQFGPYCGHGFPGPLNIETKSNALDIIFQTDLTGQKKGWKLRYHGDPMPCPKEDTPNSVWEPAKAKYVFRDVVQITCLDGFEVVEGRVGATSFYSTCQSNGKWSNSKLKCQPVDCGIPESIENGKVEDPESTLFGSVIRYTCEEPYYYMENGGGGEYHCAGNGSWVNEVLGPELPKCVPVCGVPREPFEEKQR
Description: Anti-Cl esterase activity, Cls (ATEE hydrolysis, method of Okamura et al.). The format is biochemical. To be noted: read-out: Anti-C1 activity, Cls (ID50). As for the experimental part:
as §2
Cls: Molar concentration of the test compound which inhibits 50% of the ability of Cls to hydrolyse ATEE (acetyltyrosin ethyl ester) (ID50).

Data set [7] relates to complement mediated hemolysis. As to the kind of experiment: Inhibition of complement mediated hemolysis (method of Baker et al.). The data set is classed as cell-based.
Data set [8] in a line: Toxicity, lethal dose (LD50). To be noted: mouse, in vivo.

Read-outs that look alike come from different tables or passages of the source. A value given as a limit tells only on which side of the number the result lay.

What is called LD50 is the dose expected to kill half of the subjects tested.

Chain of plasmin (P00747 581-810 limits assumed): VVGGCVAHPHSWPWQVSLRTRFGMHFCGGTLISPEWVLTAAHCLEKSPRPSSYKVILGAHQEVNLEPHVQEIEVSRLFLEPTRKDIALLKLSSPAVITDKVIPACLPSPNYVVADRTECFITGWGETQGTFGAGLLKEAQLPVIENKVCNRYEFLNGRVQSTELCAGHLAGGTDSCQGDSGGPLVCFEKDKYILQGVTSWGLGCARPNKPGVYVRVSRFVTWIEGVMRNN
Chain of plasmin (P00747 97-580 partner limits assumed): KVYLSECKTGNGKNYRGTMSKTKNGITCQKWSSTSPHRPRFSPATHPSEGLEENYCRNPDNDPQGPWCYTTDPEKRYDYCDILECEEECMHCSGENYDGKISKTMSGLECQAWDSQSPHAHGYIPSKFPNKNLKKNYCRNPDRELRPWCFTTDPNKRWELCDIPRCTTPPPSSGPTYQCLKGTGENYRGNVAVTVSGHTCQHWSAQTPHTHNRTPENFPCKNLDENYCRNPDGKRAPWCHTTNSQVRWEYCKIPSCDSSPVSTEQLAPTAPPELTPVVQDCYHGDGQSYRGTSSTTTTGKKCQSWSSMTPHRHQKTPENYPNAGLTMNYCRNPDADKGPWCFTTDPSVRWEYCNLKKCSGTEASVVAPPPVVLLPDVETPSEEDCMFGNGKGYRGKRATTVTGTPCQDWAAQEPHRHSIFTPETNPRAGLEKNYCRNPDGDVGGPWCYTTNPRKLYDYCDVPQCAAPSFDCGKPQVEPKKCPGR

Take `CC(=O)Oc1ccc2cc(C(=N)N)ccc2c1` [Compound No. 1, 6-amidino-2-naphthyl acetate]: the IC50 came out at 80 µM in data set [1]; 200 µM in data set [2]; 500 µM in data set [3]; 400 µM in data set [4]; 10 µM in data set [5]; 20 µM in data set [6]. The “Inhibition of complement mediated hemolysis (%)” value (“Inhibition … (%)” below) in data set [7] (concentration 1 × 10^-4) is on record as 86%; in data set [7] (concentration 1 × 10^-5), 15%; in data set [7] (concentration 1 × 10^-6) it was 0%; in data set [7] (concentration 1 × 10^-7), 0%. Besides, the LD50 in data set [8] (ip, read-out: LD50 Mouse IP) was 200 mg/kg; in data set [8] (po, read-out: LD50 Mouse PO) it was 2500 mg/kg.

As for `CCCC(=O)Oc1ccc2cc(C(=N)N)ccc2c1` [Compound No. 2, 6-amidino-2-naphthyl n-butyrate], the IC50 in data set [1] came out at 20 µM; in data set [2], 30 µM; in data set [3] it was 700 µM; in data set [4], 20 µM; in data set [5], 9 µM; in data set [6], 20 µM. Moreover, the “Inhibition … (%)” value in data set [7] (concentration 1 × 10^-4) is recorded as 96%; in data set [7] (concentration 1 × 10^-5), 40%; in data set [7] (concentration 1 × 10^-6) it was 1%; in data set [7] (concentration 1 × 10^-7), 0%. Moreover, the LD50 was 200 mg/kg in data set [8] (ip, read-out: LD50 Mouse IP) and 2500 mg/kg in data set [8] (po, read-out: LD50 Mouse PO).

On to `CC(C)CC(=O)Oc1ccc2cc(C(=N)N)ccc2c1` [Compound No. 3, 6-amidino-2-naphthyl isovalerate], for which the IC50 in data set [1] worked out at 30 µM; in data set [2], 30 µM; in data set [3], 500 µM; in data set [4], 80 µM; in data set [5] it was 2 µM; in data set [6], 2 µM. The “Inhibition … (%)” value was determined as 95% in data set [7] (concentration 1 × 10^-4), 37% in data set [7] (concentration 1 × 10^-5), 0% in data set [7] (concentration 1 × 10^-6) and 0% in data set [7] (concentration 1 × 10^-7).

On to `N=C(N)c1ccc2cc(OC(=O)C3CC3)ccc2c1` [Compound No. 10, 6-amidino-2-naphthyl cyclopropanecarboxylate], for which the IC50 in data set [1] was determined as 2 µM; in data set [2], 4 µM; in data set [3] it was 100 µM; in data set [4], 3 µM; in data set [5], 0.2 µM; in data set [6] it was 0.3 µM. For the same compound, the “Inhibition … (%)” value turned out to be 100% in data set [7] (concentration 1 × 10^-4), 92% in data set [7] (concentration 1 × 10^-5), 18% in data set [7] (concentration 1 × 10^-6) and 0% in data set [7] (concentration 1 × 10^-7).

For the compound `N=C(N)c1ccc2cc(OC(=O)C3CCCCC3)ccc2c1` [Compound No. 12, 6-amidino-2-naphthylcyclohexanecarboxylate], the IC50 in data set [1] is 20 µM; in data set [2] it was 10 µM; in data set [3] it was above 10 µM; in data set [4] it was 40 µM; in data set [5], 2 µM; in data set [6], 3 µM. Further, the “Inhibition … (%)” value turned out to be 45% in data set [7] (concentration 1 × 10^-4), 10% in data set [7] (concentration 1 × 10^-5), 11% in data set [7] (concentration 1 × 10^-6) and 0% in data set [7] (concentration 1 × 10^-7).

Regarding `N=C(N)c1ccc2cc(OC(=O)CCCCCNC(=O)OCc3ccccc3)ccc2c1` [Compound No. 16, 6-amidino-2-naphthyl ε-benzyloxycarbonylaminocaproate], the IC50 in data set [1] amounted to 10 µM; in data set [2], 3 µM; in data set [3], 40 µM; in data set [4], 100 µM; in data set [5] it was 4 µM; in data set [6], 4 µM. Besides, the “Inhibition … (%)” value in data set [7] (concentration 1 × 10^-4) came out at 92%; in data set [7] (concentration 1 × 10^-5), 15%; in data set [7] (concentration 1 × 10^-6) it was 0%; in data set [7] (concentration 1 × 10^-7) it was 0%.

Consider `N=C(N)NCCCCCC(=O)Oc1ccc2cc(C(=N)N)ccc2c1` [Compound No. 18, 6-amidino-2-naphthyl ε-guanidinocaproate], for which the IC50 in data set [1] is 10 µM; in data set [2] it was 30 µM; in data set [3] it was above 10 µM; in data set [4] it was 40 µM; in data set [5] it was 70 µM; in data set [6] it was 9 µM. In addition, the “Inhibition … (%)” value in data set [7] (concentration 1 × 10^-4) is 92%; in data set [7] (concentration 1 × 10^-5), 30%; in data set [7] (concentration 1 × 10^-6), 3%; in data set [7] (concentration 1 × 10^-7) it was 0%.

For `CCCCCC(=O)Oc1ccc2cc(C(=N)N)ccc2c1` [compound 4, 6-amidino-2-naphthyl caproate], the IC50 came to 20 µM in data set [1]; 20 µM in data set [2]; 300 µM in data set [3]; 3000 µM in data set [4]; 5 µM in data set [5]; 4 µM in data set [6]. For the same compound, the “Inhibition … (%)” value is 83% in data set [7] (concentration 1 × 10^-4), 12% in data set [7] (concentration 1 × 10^-5), 5% in data set [7] (concentration 1 × 10^-6) and 0% in data set [7] (concentration 1 × 10^-7).

As to `N=C(N)c1ccc2cc(OC(=O)[C@H]3CC[C@H](CNC(=O)OCc4ccccc4)CC3)ccc2c1` [compound 19, 6-amidino-2-naphtyl trans-4-benzyloxycarbonylaminomethylcyclohexanecarboxylate], the IC50 in data set [1] was 1 µM; in data set [2], 0.8 µM; in data set [3], 6 µM; in data set [4], 30 µM; in data set [5], 0.4 µM; in data set [6], 0.4 µM. Further, the “Inhibition … (%)” value in data set [7] (concentration 1 × 10^-4) is listed as 55%; in data set [7] (concentration 1 × 10^-5) it was 88%; in data set [7] (concentration 1 × 10^-6), 25%; in data set [7] (concentration 1 × 10^-7), 6%.
